# Results as given in US8829015B2 (Novartis AG, priority 2005, dated 2014).
# Where a name gives a salt, the structure may show the parent alone.
# Tests used:
# physchem [1] = conditions: aqueous buffer solution, pH 1, simulated gastric fluid, thermodynamic from solid
# physchem [2] = conditions: tetrahydrofuran/water (1:1), 25 °C, aqueous with cosolvent or surfactant or cyclodextrin, thermodynamic from solid
# [3] = Equilibration of free base forms with solvents, XRPD; assay type: physicochemical; conditions: thirteen solvents, one day, 25° C.
# Text: The solid part was investigated by XRPD.
# [4] = Hygroscopicity (water uptake); assay type: physicochemical; conditions: 25° C. up to 80% r.h.
# [5] = Thermal properties by TGA and DSC; assay type: physicochemical
# Text: Form A's basic thermal properties were studied by thermogravimetric analysis (TGA) and differential scanning calorimetry (DSC) and are as follows:
# [6] = Solubility by gravimetric techniques at different temperatures, residue by XRPD
# [7] = Form conversion on exposure to solvent vapor, air, moisture or room conditions; assay type: physicochemical; conditions: in the presence of ethanol
# [8] = Equilibration of hydrochloride forms A, B and C with solvents, XRPD; assay type: physicochemical
# Text: Then the solutions were filtered and the solid part investigated by XRPD.
# [9] = pH of 1% solution or suspension in water; assay type: physicochemical; conditions: 1% in water; listed as Hydrochloride monohydrate (form B)
# [10] = Stability studies on storage; assay type: physicochemical; conditions: storage at various relative humidities
# [11] = Compression with a hydraulic press, XRPD; assay type: physicochemical; conditions: 5 minutes at 10 tons, room temperature
# [12] = Intrinsic dissolution rate (rotating disk); assay type: physicochemical; conditions: for Intrinsic dissolution rate: 37° C., 200 rpm
# Protocol: Intrinsic Dissolution Rate (IDR): Dissolution rate measurements were performed at 37° C. using the rotating disk method (VanKell Instrument). A single rotation speed of 200 rpm was used. For IDR in 0.1N HCl, an 800 mL volume, and for IDR in water, a 200 mL volume were used. The solution was continuously pumped through a UV measuring cell and recycled to the dissolution vessel.
# The measurements were carried out on a VanKel instrument using a Cary 100 photometer.
# [13] = Equilibration of hydrochloride form B with solvents (approximate solubility by gravimetry, form by XRPD); conditions: for Solubility: equilibrated at least 20 hours
# [14] = Wetting with granulating solvent, XRPD; assay type: physicochemical; conditions: dried under vacuum
# Text: The material is vortexed between each addition. Then the material is dried under vacuum to <2% or less and evaluated for form and degree of crystallinity by XRPD or DSC.
# [15] = 0.1N HCl, 50° C., after 24 hours
smiles,measurement,setting,value
Cc1cn(-c2cc(NC(=O)c3ccc(C)c(Nc4nccc(-c5cccnc5)n4)c3)cc(C(F)(F)F)c2)cn1 [Form A of the free base],Solubility,physchem [1],> 0.2 mg/mL
same,Solubility,physchem [2],1.78 mg/mL
same,form transition on equilibration,[3],No form transitions occurred
same,hygroscopicity,[4],slightly hygroscopic
same,maximum water uptake,[4],less than 2%
same,Decomposition temperature,[5],>300 °C
Cc1cn(-c2cc(NC(=O)c3ccc(C)c(Nc4nccc(-c5cccnc5)n4)c3)cc(C(F)(F)F)c2)cn1 [Form B of the hydrochloride salt],Solubility,"[6]; 0.0001N HCl, 25° C., after 24 hours",0.47 mg/mL
same,Solubility,"[6]; 0.0001N HCl, 50° C., after 24 hours",1.32 mg/mL
same,Solubility,"[6]; 0.001N HCl, 25° C., after 24 hours",0.70 mg/mL
same,Solubility,"[6]; 0.001N HCl, 50° C., after 24 hours",1.34 mg/mL
same,Solubility,"[6]; 0.01N HCl, 25° C., after 24 hours",0.69 mg/mL
same,Solubility,"[6]; 0.01N HCl, 50° C., after 24 hours",1.44 mg/mL
same,Solubility,"[6]; 0.1N HCl, 25° C., after 24 hours",2.36 mg/mL
same,Solubility,[6]; [15],6.62 mg/mL
same,XRPD (form of the solid),[6]; [15],B + A
same,Solubility,"[6]; Methanol, 25° C., after 24 hours",14.37 mg/mL
same,Solubility,"[6]; Methanol, 50° C., after 24 hours",52.11 mg/mL
same,Solubility,"[6]; Methanol/Water (95/5) v/v, 20° C., 10 minutes",13.64 mg/mL
same,Solubility,"[6]; Methanol/Water (95/5) v/v, 20° C., 1 hour",13.43 mg/mL
same,Solubility,"[6]; Methanol/Water (95/5) v/v, 20° C., 24 hours",13.01 mg/mL
same,Solubility,"[6]; Methanol/Water (95/5) v/v, 45° C., 10 minutes",34.49 mg/mL
same,Solubility,"[6]; Methanol/Water (95/5) v/v, 45° C., 1 hour",38.18 mg/mL
same,Solubility,"[6]; Methanol/Water (95/5) v/v, 45° C., 24 hours",41.70 mg/mL
same,Solubility,"[6]; Methanol/Water (95/5) v/v, −10° C., 10 minutes",9.42 mg/mL
same,Solubility,"[6]; Methanol/Water (95/5) v/v, −10° C., 1 hour",6.65 mg/mL
same,Solubility,"[6]; Methanol/Water (95/5) v/v, −10° C., 24 hours",4.85 mg/mL
same,Solubility,"[6]; Methanol/Water (99.5/0.5) v/v, 20° C., 10 minutes",12.90 mg/mL
same,Solubility,"[6]; Methanol/Water (99.5/0.5) v/v, 20° C., 1 hour",13.78 mg/mL
same,Solubility,"[6]; Methanol/Water (99.5/0.5) v/v, 20° C., 24 hours",12.21 mg/mL
same,Solubility,"[6]; Methanol/Water (99.5/0.5) v/v, 45° C., 10 minutes",33.29 mg/mL
same,Solubility,"[6]; Methanol/Water (99.5/0.5) v/v, 45° C., 1 hour",39.39 mg/mL
same,Solubility,"[6]; Methanol/Water (99.5/0.5) v/v, 45° C., 24 hours",40.40 mg/mL
same,Solubility,"[6]; Methanol/Water (99.5/0.5) v/v, −10° C., 10 minutes",7.62 mg/mL
same,Solubility,"[6]; Methanol/Water (99.5/0.5) v/v, −10° C., 1 hour",5.63 mg/mL
same,Solubility,"[6]; Methanol/Water (99.5/0.5) v/v, −10° C., 24 hours",4.00 mg/mL
same,Solubility,"[6]; Water, 25° C., after 24 hours",1.28 mg/mL
same,Solubility,"[6]; Water, 50° C., after 24 hours",1.40 mg/mL
same,form conversion,[7],converts to form A
same,form transition on equilibration,"[8]; 10 different solvents (ethanol, methanol, water, ethanol/water 99:1, methanol/water 99:1 and 99.3:0.7, methanol/HCl 0.1N, diethylether, hexane, tetrahydrofuran), one day, 25° C.",No form transitions occurred
same,form transition on equilibration,"[8]; ethanol, 50° C., 2 days",transitioned to a mixture of forms A and B
same,pH of 1% solution or suspension in water,[9],2.53
same,form transition after storage,[10],No form transitions were observed
same,change of crystalline modification (by XRPD) after compression,[11],no change of crystalline modification
same,Intrinsic dissolution rate,"[12]; Water, listed as Hydrochloride monohydrate (form B)",0.0024 mg min^−1cm^−2
same,Intrinsic Dissolution Rate value,[12]; dissolution medium HCl 0.0001 N,0.0010 mg/min/cm^2
same,Intrinsic Dissolution Rate value,[12]; dissolution medium HCl 0.001 N,0.0045 mg/min/cm^2
same,Intrinsic Dissolution Rate value,[12]; dissolution medium HCl 0.01 N,0.0224 mg/min/cm^2
same,Intrinsic Dissolution Rate value,[12]; dissolution medium HCl 0.1 N,0.1003 mg/min/cm^2
same,Intrinsic Dissolution Rate value,[12]; dissolution medium Water,0.0001 mg/min/cm^2
same,Intrinsic dissolution rate,[12]; pH 1 (0.1 N HCl),0.17 mg min^−1cm^−2
same,Solubility,"[13]; Acetonitrile, 25° C.",0.3 mg/g
same,Solubility,"[13]; Acetonitrile, 50° C.",2.1 mg/g
same,Solubility,"[13]; Acetonitrile-water 1:1, 25° C.",10.3 mg/g
same,Solubility,"[13]; DMSO, 50° C.",>27.5 mg/g
same,Solubility,"[13]; Ethanol (96%), 25° C.",3.9 mg/g
same,Solubility,"[13]; Ethanol (96%), 50° C.",22.4 mg/g
same,Solubility,"[13]; Ethanol, 50° C.",26.5 mg/g
same,Solubility,"[13]; Ethanol-water 1:1, 50° C.",17.2 mg/g
same,Solubility,"[13]; Ethyl acetate, 25° C.",0.3 mg/g
same,Solubility,"[13]; Ethyl acetate, 50° C.",3.0 mg/g
same,Solubility,"[13]; Methanol, 25° C.",16.3 mg/g
same,Form (XRPD) after equilibration,"[13]; Methanol, 50° C., at least 20 hours",Solvate (as wet cake - dries to B)
same,Solubility,"[13]; Methanol, 50° C.",>27.5 mg/g
same,Solubility,"[13]; Propan-2-ol, 25° C.",1.5 mg/g
same,Solubility,"[13]; Propan-2-ol, 50° C.",4.8 mg/g
same,Solubility,"[13]; Tetrahydrofuran, 25° C.",5.8 mg/g
same,Solubility,"[13]; Tetrahydrofuran-water 1:1, 25° C.",12.2 mg/g
same,Solubility,"[13]; Toluene, 25° C.",1.3 mg/g
same,Solubility,"[13]; Toluene, 50° C.",5.6 mg/g
same,XRPD results after granulation,[14]; granulating solvent Ethanol,No change
same,XRPD results after granulation,[14]; granulating solvent Water,No change
